Earlier results as cited in article PMC7397562 (Drug Design, Development and Therapy, 2020).

## COc1ccc(-c2cc(=O)c3c(OC)c(OC)c(OC)c(OC)c3o2)cc1 [TAGE, tangeretin]
  Oral absolute bioavailability (mean value): < 3.05%
